The values below are quoted from earlier work in paper PMC6151961 (Journal of Enzyme Inhibition and Medicinal Chemistry, 2018).

Like-named read-outs stand apart in the source and are kept apart here.

A word on the Ki: it is a dissociation constant, usually derived from enzyme kinetics or from competition with a known ligand.

This series concerns the target CA IX (Homo sapiens, UniProt Q16790). Particulars: cited from earlier work; for Ki: read-out: Ki.
[1] abbreviates: library compounds (IDs A…, B…) of Table S4, ref ChEMBL and BindingDB.
Setting [2] is: library compounds (IDs A…, B…), values equal log10 of Ki in nM, ref ChEMBL and BindingDB.
Setting [3] is: library compounds (IDs A…, B…), observed Ki towards CA IX, ref ChEMBL and BindingDB.
The mark [4] stands for this setting: observed Ki of library compounds (IDs A…, B…), ref ChEMBL and BindingDB.
Setting [5] is: experimental pKi towards CA IX, library compounds, ref ChEMB database (ID A), BindingDB (ID B).
The mark [6] stands for this setting: observed Ki towards CA IX, library compounds, ref ChEMB database (ID A), BindingDB (ID B).
Where [7] appears, read: library compounds (IDs A..., B...), values equal log10 of Ki in nM, ref ChEMBL, BindingDB.
Setting [8] is: observed Ki of library compounds (IDs A..., B...), ref ChEMBL, BindingDB.

`NS(=O)(=O)c1ccc2c(c1)S(=O)(=O)C[C@H]2OCc1ccccc1` [A0131]: the Ki under setting [1] was 2.8 nM. Moreover, the “log10 of Ki in nM” value under setting [2] was 0.447.
Regarding `NS(=O)(=O)c1ccc(OC2=NON(O)[C@@H]2S(=O)(=O)c2ccccc2)cc1` [A0390], the Ki under setting [3] was 6.4 nM. Moreover, the “log10 of Ki in nM” value under setting [2] was 0.806.
In the case of `COc1ccc2c(c1)CCN(S(N)(=O)=O)[C@H]2c1ccc(S(N)(=O)=O)cc1` [A0401], the “log10 of Ki in nM” value is 0.813 and the Ki is 6.5 nM.
For `COc1ccc2c(c1)CCN(S(N)(=O)=O)[C@H]2c1ccc(C#N)cc1` [A0427], the Ki under setting [1] was 7 nM. Besides, the “log10 of Ki in nM” value under setting [2] is 0.845.
For `NS(=O)(=O)c1ccc([C@H]2c3ccc(O)cc3CCN2S(N)(=O)=O)cc1` [A0504, reference compound], the “log10 of Ki in nM” value is reported as 0.898 and the Ki was 7.9 nM.
Consider `O=S(=O)(NO)N[C@H]1C=C[C@H](O)[C@@H](CO)O1` [A0589], for which the “log10 of Ki in nM” value was 0.954 and the Ki is 9 nM.
For the molecule `COc1ccc2c(c1)CCN(S(N)(=O)=O)[C@H]2c1ccc(N)cc1` [A0718], under setting [1], the Ki is 12 nM. The “log10 of Ki in nM” value under setting [2] was 1.079.
`COc1ccc2c(c1)CCN[C@H]2c1ccc(S(N)(=O)=O)cc1` [A0785]: the “log10 of Ki in nM” value is on record as 1.188 and the Ki was 15.4 nM.
In the case of `CC[C@@H](Sc1nc(-c2cccc(OC)c2)c(C#N)c(=O)[nH]1)C(=O)Nc1ccc(S(N)(=O)=O)cc1` [A0953], under setting [2], the “log10 of Ki in nM” value was 1.380. Besides, the Ki under setting [4] is 24 nM.
On to `NS(=O)(=O)c1ccc(CC/N=C\c2ccc(-c3ccccn3)cc2)cc1` [A1025], for which the “log10 of Ki in nM” value under setting [5] was 1.446. For the same molecule, the Ki under setting [6] was 27.9 nM.
With `CC1(C)CC(NC(=S)Nc2ccc(S(N)(=O)=O)cc2)CC(C)(C)N1O` [A1198], the Ki under setting [3] was 41 nM. In addition, under setting [2], the “log10 of Ki in nM” value is 1.613.
As for `CCOc1ccc2c(c1)CCN(S(N)(=O)=O)[C@H]2c1ccc(S(N)(=O)=O)cc1` [A1289], the “log10 of Ki in nM” value is 1.717 and the Ki is 52.1 nM.
Turning to `NS(=O)(=O)c1ccc(N2C(=O)CS[C@@H]2c2cccc(F)c2)cc1` [A1295], the Ki under setting [3] is 53.1 nM. Also, the “log10 of Ki in nM” value under setting [2] is 1.725.
Regarding `NS(=O)(=O)c1ccc([C@H]2C(Oc3ccccc3)=NON2O)cc1` [A1359], the Ki under setting [3] is 63.9 nM. Moreover, the “log10 of Ki in nM” value under setting [2] is recorded as 1.806.
Turning to `CC(=O)N1N=C(c2ccc(C)cc2)C[C@H]1c1c(C)nn(-c2ccc(S(N)(=O)=O)cc2)c1Cl` [A1383], the Ki under setting [3] is 67.1 nM. Also, the “log10 of Ki in nM” value under setting [2] is listed as 1.827.
Consider `COc1ccc2c(c1)CCN(S(N)(=O)=O)[C@H]2c1ccccc1` [A1457], for which the Ki under setting [3] is 78 nM. Under setting [2], the “log10 of Ki in nM” value is listed as 1.892.
On to `CC(C)OS(N)(=O)=O` [A2163], for which the Ki was 1000 nM.
As for `O=C(Cc1ccccc1Br)Oc1ccc2c(c1)OS(=O)(=O)CC2` [A2452], the “log10 of Ki in nM” value under setting [5] is on record as 4.000. The Ki under setting [6] was 10000 nM.
For the molecule `CC/C(=N/Nc1ccc([N+](=O)[O-])cc1)Sc1cc(Cl)c(C)cc1S(N)(=O)=O` [A2453], under setting [3], the Ki was 10000 nM. Further, under setting [2], the “log10 of Ki in nM” value was 4.000.
Regarding `Cc1cc(S(N)(=O)=O)c(S/C(=N\Nc2ccc([N+](=O)[O-])cc2)c2ccccc2)cc1Cl` [A2454], the Ki under setting [1] is 10000 nM. In addition, under setting [2], the “log10 of Ki in nM” value is 4.000.
As for `CC(=O)CN1C(=O)C=C(C)OS1(=O)=O` [A2477], the Ki under setting [3] is 20000 nM. For the same molecule, under setting [2], the “log10 of Ki in nM” value is 4.301.
Regarding `CCCN(CCC)S(=O)(=O)c1ccc(C(=O)N[C@H](CO)C(N)=O)cc1` [B0020], the “log10 of Ki in nM” value is on record as 0.415 and the Ki is 2.6 nM.
As for `N#C/C(=C/C=C\c1ccccc1)C(=O)Nc1ccc(S(N)(=O)=O)cc1` [B0085], under setting [7], the “log10 of Ki in nM” value is reported as 0.690. Further, under setting [8], the Ki was 4.9 nM.
In the case of `CC(=O)OC[C@H]1O[C@@H](n2cc(-c3ccc(S(N)(=O)=O)cc3)nn2)[C@@H](OC(C)=O)[C@@H](OC(C)=O)[C@@H]1OC(C)=O` [B0096], the “log10 of Ki in nM” value is recorded as 0.699 and the Ki is 5 nM.
Turning to `CC1=CC(c2ccccc2)C=C(C)N1CCc1ccc(S(N)(=O)=O)cc1` [B0111], the “log10 of Ki in nM” value under setting [2] is reported as 0.778. Besides, the Ki under setting [4] is 6 nM.
For the molecule `CC(=O)OC[C@@H]1O[C@H](S(=O)(=O)Cc2cn(-c3ccc(S(N)(=O)=O)cc3)nn2)[C@@H](OC(C)=O)[C@H](OC(C)=O)[C@H]1OC(C)=O` [B0149], the “log10 of Ki in nM” value is listed as 0.875 and the Ki was 7.5 nM.
Turning to `NS(=O)(=O)c1ccc(-n2cc(CS(=O)(=O)[C@@H]3O[C@@H](CO)[C@H](O)[C@@H](O)[C@H]3O)nn2)cc1` [B0162], the “log10 of Ki in nM” value is given as 0.908 and the Ki was 8.1 nM.
With `C[C@H](Nc1nc(NCc2ccc(S(N)(=O)=O)cc2)nc(N[C@@H](C)C(=O)O)n1)C(=O)O` [B0173], the “log10 of Ki in nM” value was 0.929 and the Ki was 8.5 nM.
In the case of `CC(=O)OC[C@@H]1O[C@@H](SCc2cn(-c3ccc(S(N)(=O)=O)cc3)nn2)[C@H](OC(C)=O)[C@@H](OC(C)=O)[C@@H]1OC(C)=O` [B0180], the “log10 of Ki in nM” value is reported as 0.934 and the Ki is 8.6 nM.
In the case of `CC(=O)OC[C@@H]1O[C@@H](NS(N)(=O)=O)CC[C@H]1OC(C)=O` [B0190], the “log10 of Ki in nM” value under setting [2] is 0.954. For the same molecule, the Ki under setting [4] is 9 nM.
For `NS(=O)(=O)c1ccc(CCNc2nc(N[C@@H](CO)C(=O)O)nc(N[C@H](CO)C(=O)O)n2)cc1` [B0192], the “log10 of Ki in nM” value is 0.954 and the Ki is 9 nM.
On to `Cn1nc(S(N)(=O)=O)s/c1=N/C(=O)c1c(F)c(F)cc(F)c1F` [B0221], for which the “log10 of Ki in nM” value is 1.021 and the Ki was 10.5 nM.
For the molecule `COc1cc(/C=C\C(=O)OCCCCO[N+](=O)[O-])ccc1OC(=O)c1ccc(S(N)(=O)=O)cc1` [B0225], the “log10 of Ki in nM” value is recorded as 1.041 and the Ki is 11 nM.
Consider `NS(=O)(=O)c1cc(-c2nnc(-c3ccccc3)s2)c(Cl)cc1Cl` [B0246], for which the Ki under setting [3] is 14 nM. For the same molecule, the “log10 of Ki in nM” value under setting [2] is 1.146.
For the molecule `NS(=O)(=O)c1ccc(NC2=NC(=O)/C(=C\c3coc4ccccc4c3=O)S2)cc1` [B0247], the Ki under setting [3] was 14 nM. Besides, under setting [2], the “log10 of Ki in nM” value is given as 1.146.
`CCCN(CCC)S(=O)(=O)c1ccc(C(=O)N[C@H](C)C(N)=O)cc1` [B0254, reference compound]: the Ki (CA IX, library ligands, ref ChEMBL[43] and BindingDB[44]) is 15 nM. For the same molecule, the “log10 of Ki in nM” value (CA IX, observed value, equals log of Ki in nM, ref ChEMBL[43] and BindingDB[44]) is 1.176.
In the case of `Cc1cc(C)o/c(=N\O)c1` [B0259], the “log10 of Ki in nM” value under setting [7] was 1.204. Also, under setting [8], the Ki is 16 nM.
`Cc1ccc2nc(S)n(-c3ccc(S(N)(=O)=O)cc3)c(=O)c2c1` [B0260]: under setting [1], the Ki is 16 nM. Also, under setting [2], the “log10 of Ki in nM” value was 1.204.
Turning to `Cc1cc(C)c2nc(S)n(-c3ccc(S(N)(=O)=O)cc3)c(=O)c2c1` [B0272], the “log10 of Ki in nM” value under setting [7] is 1.255. Moreover, under setting [8], the Ki was 18 nM.
Regarding `CCO[C@H]1Oc2ccccc2C(=O)[C@@H]1/C=N\c1ccc(S(=O)(=O)Nc2nccs2)cc1` [B0283], the Ki under setting [1] is 20 nM. The “log10 of Ki in nM” value under setting [2] was 1.301.
For the molecule `COc1ccc(-c2nn(-c3ccc(S(N)(=O)=O)cc3)cc2/C=N/Nc2nc(-c3cc4cc(Br)ccc4oc3=O)cs2)cc1` [B0286], under setting [3], the Ki is 20 nM. For the same molecule, under setting [2], the “log10 of Ki in nM” value is listed as 1.301.
